Laboratory results from US9113629B2, “4-amino-6-(4-substituted-phenyl)-picolinates and 6-amino-2-(4-substituted-phenyl)-pyrimidine-4-carboxylates and their use as herbicides” (DOW AGROSCIENCES LLC, priority 2013, dated 2015).
Where two headings read alike, the source gives them in different places.

Key:
Test in all cases: Post-emergent Test III, herbicidal activity in wheat and barley
Assay type in all cases: in vivo
[1] = system: HORSS: barley, including spring and winter (Hordeum vulgare); conditions: for pest or weed control at 35 g/ha / pest or weed control at 70 g/ha: Hordeum vulgare, post-emergence, 504 h; for pest or weed control at 35 g/ha: 35 g ai/ha; for pest or weed control at 70 g/ha: 70 g ai/ha; for GR20 HORSS: probit analysis
Method: (§1) Post-emergent Test III. Seeds of the desired test plant species were planted in Sun Gro MetroMix® 306 planting mixture, which typically has a pH of 6.0 to 6.8 and an organic matter content of about 30 percent, in plastic pots with a surface area of 103.2 square centimeters (cm^2). When required to ensure good germination and healthy plants, a fungicide treatment and/or other chemical or physical treatment was applied. The plants were grown for 7-36 days (d) in a greenhouse with an approximate 14 hour (h) photoperiod which was maintained at about 18° C. during the day and 17° C. during the night. Nutrients and water were added on a regular basis and supplemental lighting was provided with overhead metal halide 1000-Watt lamps as necessary. The plants were employed for testing when they reached the second or third true leaf stage.
(§2) A weighed amount, determined by the highest rate to be tested, of each test compound was placed in a 25 mL glass vial and was dissolved in 4 mL of a 97:3 v/v mixture of acetone and DMSO to obtain concentrated stock solutions. […] The concentrated stock solutions obtained were diluted with 20 mL of an aqueous mixture containing acetone, water, isopropyl alcohol, DMSO, Agri-Dex crop oil concentrate, and X-77 surfactant in a 48:39:10:1.5:1.5:0.02 v/v ratio to obtain spray solutions containing the highest application rates. Additional application rates were obtained by serial dilution of 12 mL of the high rate solution into a solution containing 2 mL of 97:3 v/v mixture of acetone and DMSO and 10 mL of an aqueous mixture containing acetone, water, isopropyl alcohol, DMSO, Agri-Dex crop oil concentrate, and X-77 surfactant in a 48:39:10:1.5:1.5:0.02 v/v ratio to obtain ½×, ¼×, ⅛× and 1/16× rates of the high rate. Compound requirements are based upon a 12 mL application volume at a rate of 187 liters per hectare (L/ha). Formulated compounds were applied to the plant material with an overhead Mandel track sprayer equipped with 8002E nozzles calibrated to deliver 187 L/ha over an application area of 0.503 square meters at a spray height of 18 inches (43 cm) above the average plant canopy height. Control plants were sprayed in the same manner with the solvent blank.
(§3) The treated plants and control plants were placed in a greenhouse as described above and watered by subirrigation to prevent wash-off of the test compounds. After 21 d, the condition of the test plants as compared with that of the untreated plants was determined visually and scored on a scale of 0 to 100 percent where 0 corresponds to no injury and 100 corresponds to complete kill.
(§4) By applying the well-accepted probit analysis as described by J. Berkson in Journal of the American Statistical Society, 48, 565 (1953) and by D. Finney in “Probit Analysis” Cambridge University Press (1952), herbicidal injury of a specific compound at various rates can be used to calculate GR20, GR50, GR80 and GR90 values, which are defined as growth reduction factors that correspond to the effective dose of herbicide required to provide plant growth reduction (GR) of 20 percent, 50 percent, 80 percent and 90 percent, respectively. Probit analysis was applied to data collected from multiple dose rates of individual compounds utilizing the procedures explained in the following examples. The analysis of those dose rates is captured in the following tables.

[2] = system: MATSS: scented mayweed (Matricaria chamomilla), pineappleweed (Matricaria matricarioides); conditions: for pest or weed control at 35 g/ha / pest or weed control at 70 g/ha: Matricaria chamomilla, post-emergence, 504 h; for pest or weed control at 35 g/ha: 35 g ai/ha; for pest or weed control at 70 g/ha: 70 g ai/ha; for GR50 MATSS: dose for 50 percent growth reduction; for GR50 MATSS / GR80 MATSS: probit analysis; for GR80 MATSS: dose for 80 percent growth reduction
Method: as §1, §2, §3, §4

[3] = system: KCHSC: kochia (Kochia scoparia); conditions: for pest or weed control at 35 g/ha / pest or weed control at 70 g/ha: Bassia scoparia, post-emergence, 504 h; for pest or weed control at 35 g/ha: 35 g ai/ha; for pest or weed control at 70 g/ha: 70 g ai/ha; for GR50 KCHSC: dose for 50 percent growth reduction; for GR50 KCHSC / GR80 KCHSC: probit analysis; for GR80 KCHSC: dose for 80 percent growth reduction
Method: as §1, §2, §3, §4

[4] = system: TRZSS: wheat, including spring and winter (Triticum aestivum); conditions: for GR20 TRZSS: probit analysis; for pest or weed control at 35 g/ha / pest or weed control at 70 g/ha: Triticum aestivum, post-emergence, 504 h; for pest or weed control at 35 g/ha: 35 g ai/ha; for pest or weed control at 70 g/ha: 70 g ai/ha
Method: as §1, §2, §3, §4

[5] = Table 8, post-emergent, 21 d, read-out: Visual Growth Reduction (%) 21 Days After Application HORSS
[6] = Table 8, dose for 20 percent growth reduction, 21 d
[7] = Table 8, post-emergent, 21 d, read-out: Visual Growth Reduction (%) 21 Days After Application MATSS
[8] = Table 8, post-emergent, 21 d, read-out: Visual Growth Reduction (%) 21 Days After Application KCHSC
[9] = Table 8, post-emergent, 21 d, read-out: Visual Growth Reduction (%) 21 Days After Application TRZSS
[10] = 21 days after application, read-out: Visual Gorowth Reduction (%) 21 days After Application HORSS
[11] = dose for 20 percent growth reduction (crop), 21 days after application
[12] = 21 days after application, read-out: Visual Gorowth Reduction (%) 21 days After Application MATSS
[13] = 21 days after application, read-out: Visual Gorowth Reduction (%) 21 days After Application KCHSC
[14] = 21 days after application, read-out: Visual Gorowth Reduction (%) 21 days After Application TRZSS

Row | SMILES | pest or weed control at 35 g/ha [1, 5] | pest or weed control at 70 g/ha [1, 5] | GR20 HORSS [1, 6] | pest or weed control at 35 g/ha [2, 7] | pest or weed control at 70 g/ha [2, 7] | GR50 MATSS ([2]; Table 8, 21 d) | GR80 MATSS ([2]; Table 8, 21 d) | pest or weed control at 35 g/ha [3, 8] | pest or weed control at 70 g/ha [3, 8] | GR50 KCHSC ([3]; Table 8, 21 d) | GR80 KCHSC ([3]; Table 8, 21 d) | GR20 TRZSS [4, 6] | pest or weed control at 35 g/ha [4, 9] | pest or weed control at 70 g/ha [4, 9] | also measured
1 | Nc1cc(-c2cc(F)c(Br)cc2F)nc(C(=O)O)c1Cl [Compound 3] | 85 to 94% | 95 to 100% | 1 g ai/ha | 95 to 100% | 95 to 100% | 4 g ai/ha | 11 g ai/ha | 95 to 100% | 95 to 100% | 2 g ai/ha | 8 g ai/ha | 1 g ai/ha | 85 to 94% | 85 to 94% | 
2 | Nc1c(Cl)c(C(=O)O)nc(-c2ccc(Br)c(F)c2)c1Cl [Compound 43, 4-Amino-6-(4-bromo-3-fluorophenyl)-3,5-dichloropicolinic acid] | 95 to 100% | 95 to 100% | 1 g ai/ha | 85 to 94% | 95 to 100% | 3 g ai/ha | 7 g ai/ha | 60 to 74% | 85 to 94% | 11 g ai/ha | 41 g ai/ha | 1 g ai/ha | 85 to 94% | 95 to 100% | 
3 | Nc1c(F)c(-c2cc(F)c(I)cc2F)nc(C(=O)O)c1Cl [Compound 69] |  |  |  |  |  |  |  |  |  |  |  |  |  |  | pest or weed control at 35 g/ha [1, 10]: 85 to 94%; pest or weed control at 70 g/ha [1, 10]: 95 to 100%; GR20 HORSS [1, 11]: 1 g ai/ha; pest or weed control at 35 g/ha [2, 12]: 75 to 84%; pest or weed control at 70 g/ha [2, 12]: 85 to 94%; GR50 MATSS ([2]; 21 days after application): 5 g ai/ha; GR80 MATSS ([2]; 21 days after application): 29 g ai/ha; pest or weed control at 35 g/ha [3, 13]: 85 to 94%; pest or weed control at 70 g/ha [3, 13]: 85 to 94%; GR50 KCHSC ([3]; 21 days after application): 5 g ai/ha; GR80 KCHSC ([3]; 21 days after application): 19 g ai/ha; pest or weed control at 35 g/ha [4, 14]: 85 to 94%; pest or weed control at 70 g/ha [4, 14]: 85 to 94%; GR20 TRZSS [4, 11]: 1 g ai/ha
4 | COC(=O)c1nc(-c2ccc(I)c(F)c2)nc(N)c1OC [Compound 27, Methyl 6-amino-2-(3-fluoro-4-iodophenyl)-5-methoxypyrimidine-4-carboxylate] | 30 to 44% | 45 to 59% | 11 g ai/ha | 30 to 44% | 30 to 44% | 109 g ai/ha | >140 g ai/ha | 75 to 84% | 75 to 84% | 18 g ai/ha | 61 g ai/ha | 11 g ai/ha | 60 to 74% | 75 to 84% | 
